Results: US9446019B2, “Sparstolonin B based pharmaceutical agent for neuroblastoma treatment” (University of South Carolina, priority 2013, dated 2016)

How the values were obtained:
[1] = system: N-myc in IMR-32, NGP and SK-N-BE(2) cells; assay: N-myc protein level by Western blotting; type: cell-based, human
Experimental: (§1) After treatment with SsnB, cells were collected, washed with 1×PBS, and lysed with 1× cell lysis buffer (Cell Signaling Technology, Danvers, Mass.) containing phenylmethylsulfonyl fluoride (PMSF) and protease inhibitors (aprotinin and leupeptin) for 30 min on ice, and centrifuged at 12000×rpm for 10 min at 4° C. Supernatant (total cell protein) was collected and stored at −80° C. Protein concentration was determined by bicinchoninic acid method using BCA protein assay kit (Pierce/ThermoScientific, Waltham, Mass.). Equal amount of proteins were diluted with 5× Laemmli samples loading buffer and boiled for five minutes. The proteins were subjected to sodium dodecyl sulfate (SDS)-polyacrylamide gel electrophoresis and analyzed by Western blots. Briefly, after electrophoresis, proteins were transferred on polyvinylidene difluoride (PVDF) membrane at 100 volt for 3 h in cold room. […] Signals were detected by chemiluminiscence detection kit (Pierce/Thermo Fisher Scientific, Rockford, Ill.). […]
The level of N-myc proteins was evaluated from 2 days (IMR-32), 3 days (NGP cells) or 4 days (SK-N-BE(2) cells) SsnB-treated N-myc amplified neuroblastoma cells by Western blotting, and protein signal intensity was measured by ImageJ programme and plotted. […]

[2] = system: normal human cells (THP-1 cells, PMA-differentiated THP-1 macrophages, human umbilical vein endothelial cells, human aortic smooth muscle cells); assay: Cytotoxic response in normal human cells; type: cell-based; conditions: 1-20 μM and up to about 100 μM
[3] = system: reactive oxygen species in neuroblastoma cells; assay: ROS generation, H2DCFDA staining, fluorescence microscopy; type: cell-based, human; conditions: SsnB 10 μM; SH-SY5Y and other neuroblastoma lines; p<0.05
Experimental: The production of reactive oxygen species (ROS) in SsnB-treated neuroblastoma cells was detected by a cell-permeable fluorescence probe H2DCFDA (carboxy-2′,7′-dichlorodihydrofluorescein diacetate) according to the manufacturer's instructions (Invitrogen, Carlsbad, Calif.). Briefly, neuroblastoma cells were cultured in DMEM with 10% FBS in Lab-TekII chamber slides (Fisher Scientific, Pittsburg, Pa.) and treated with SsnB for 2 days (SH-SY5Y and IMR-32 cells), 3 days (NGP cell) or 4 days (SKNF-1 and SK-N-BE(2) cells). […] Cells were washed three times with HBSS, mounted with Vectashield mounting medium (Vector Laboratories), and immediately examined under Nikon-E600 fluorescence microscopy equipped with fluorescein isothiocyanate (FITC) filter. Oxidation of H2DCFDA probe occurs almost exclusively in the cytosol, and generates a fluorescence that is proportional to ROS generation in that cell. […] Cells were trypsinized, washed, and re-suspended in PBS and fluorescence intensity was monitored at excitation wavelength 485 nm and emission wavelength 530 nm with a spectramax spectrophotometer (Molecular Devices, Sunnyvale, Calif.).
To test whether SsnB-induced cell death resulted from increased level of ROS, H2DCFDA staining was performed. […] The carboxy-DCF positive cells were quantitated by imageJ software and plotted. […]

p53 in SH-SY5Y cells = assay: p53 expression by Western blotting; type: cell-based, human; conditions: SsnB 10 μM
Experimental: as §1
At cellular level, mitochondria- or receptor (Fas/FasL)-mediated pathways activate caspase signaling cascade which in turn induces DNA damage and initiates programmed cell death (apoptosis). […] The number of cleaved caspase-3 positive cells were quantitated by ImageJ programme and plotted. […]

[4] = ROS-generating activity in cell-free system (H2DCFDA, HRP); type: biochemical; conditions: for increase of OD value vs H2DCFDA+HRP reaction: SsnB 10 μM + H2DCFDA 25 μM + HRP 5 units/ml
Experimental: FIG. 2D and FIG. 2E illustrate the ROS generating capacity of SsnB evaluated in a cell-free system containing H2DCFDA (25 μM), horseradish peroxidase (HRP, 5 units/ml), SsnB (10 μM) and glutathione (GSH, 0.25 or 2.5 μM) alone or in various combinations. Optical density (O.D.) at 540 nm were taken at different time points and plotted.
In a reaction system, after the removal of acetate group by cellular esterases and oxidation by reactive oxygen species, the non-fluorescent carboxy-H2DCFDA dye is oxidized to fluorescent molecule carboxy-DCF. To measure the ROS-generating activity of SsnB, the oxidation of carboxy-H2DCFDA dye was monitored in a cell-free system containing carboxy-H2DCFDA dye, horseradish peroxidase (HRP) and SsnB at 540 nm. HRP was used to supply esterase since without esterase carboxy-H2DCFDA is not sensitive to oxidant. […] After addition of HRP (5 units/ml) in the reaction mixture containing SsnB (10 μM)+H2DCFDA dye (25 μM), the OD value increased by 2% in the first 240 sec and further increased by 8% after 15 min compared to H2DCFDA+HRP reaction, indicating the increased oxidation of H2DCFDA to the fluorescent compound.

O=c1occ2c3c(ccc(O)c13)Oc1ccc(O)cc1-2 [SsnB, 8,5′-dihydroxy-4-phenyl-5,2′-oxidoisocoumarin]
reduction in N-myc protein expression ([1]; SsnB 1 μM, nonsignificant vs control): not observed
N-myc protein expression ([1]; SsnB 10 μM, 2 days (IMR-32), 3 days (NGP), 4 days (SK-N-BE(2))): inhibited the expression of N-myc protein
cytotoxic response [2]: No cytotoxic response
number of carboxy-DCF positive cells vs DMSO [3]: significantly increased
p53 expression vs DMSO (p53 in SH-SY5Y cells): Increased expression of p53
increase of OD value vs H2DCFDA+HRP reaction ([4]; after 15 min): 8%
increase of OD value vs H2DCFDA+HRP reaction ([4]; first 240 sec): 2%
optical density at 540 nm ([4]; SsnB 10 μM + H2DCFDA 25 μM, without HRP): remained constant
